For one compound, IC50 and change in vivo results are on record in patent US5461049A, “Amide tetrazole ACAT inhibitors” (Warner-Lambert Company, priority 1994, dated 1995).

For test [1], the target named is T1, acyl-CoA: cholesterol acyltransferase (ACAT) (Rattus norvegicus, UniProt Q7TQM4).
T1 construct: tissue preparation containing rat liver microsomes; from tissue; host or cells: rat liver microsomes
T1 sequence (Q7TQM4 1-524): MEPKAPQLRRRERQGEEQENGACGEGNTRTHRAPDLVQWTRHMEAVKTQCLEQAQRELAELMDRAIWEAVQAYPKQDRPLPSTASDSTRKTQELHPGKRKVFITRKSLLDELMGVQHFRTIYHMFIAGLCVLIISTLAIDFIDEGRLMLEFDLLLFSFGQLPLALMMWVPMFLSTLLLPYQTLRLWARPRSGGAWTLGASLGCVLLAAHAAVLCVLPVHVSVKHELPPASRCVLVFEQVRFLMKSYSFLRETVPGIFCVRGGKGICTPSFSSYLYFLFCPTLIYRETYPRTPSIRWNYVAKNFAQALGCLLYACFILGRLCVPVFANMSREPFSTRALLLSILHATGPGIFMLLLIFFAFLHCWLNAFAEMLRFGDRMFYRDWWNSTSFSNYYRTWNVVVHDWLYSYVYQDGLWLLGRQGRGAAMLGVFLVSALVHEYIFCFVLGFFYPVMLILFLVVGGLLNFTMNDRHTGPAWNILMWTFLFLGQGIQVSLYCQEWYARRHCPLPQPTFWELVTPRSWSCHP
Kind of test: ACAT inhibition in vitro (LAI): radiolabeled cholesterol oleate formed from radiolabeled oleic acid in rat liver microsomes. Conditions: concentration required to inhibit the activity of the enzyme by 50%. The format is biochemical. How it is done: The ability of representative compounds of the present invention to inhibit ACAT was measured using an in vitro test more fully described in F. J. Field and R. G. Salone, Biochemica et Biophysica Acta, 712:557-570 (1982). The test assesses the ability of a test compound to inhibit the acylation of cholesterol by oleic acid by measuring the amount of radiolabeled cholesterol oleate formed from radiolabeled oleic acid in a tissue preparation containing rat liver microsomes (designated LAI).

Test [2] in a line: APCC in vivo screen: change in total cholesterol in rats on high fat, high cholesterol diet. Conditions: Rattus norvegicus, po, 16 h; 30 mg/kg by gavage, single dose at 4 PM, sacrificed at 8 AM; 5.5% peanut oil, 1.5% cholesterol, 0.5% cholic acid diet; vs control animals given vehicle and diet only; read-out: APCC (% change in TC). The arrangement: species or system male Sprague-Dawley rats. The source says:
In one in vivo screen designated APCC, male Sprague-Dawley rats (200-225 g body weight) were randomly divided into treatment groups and dosed at 4 PM with either vehicle (CMC/Tween) or suspensions of invention compounds in vehicle. The normal chow diet was then replaced with a high fat, high cholesterol diet (5.5% peanut oil, 1.5% cholesterol, and 0.5% cholic acid). The rats consumed this diet ad libitum during the night and were sacrificed at 8 AM to obtain blood samples for cholesterol analysis using standard procedures. Statistical differences between mean cholesterol values for the same vehicle were determined using analysis of variance followed by Fisher's least significant test. The results of this trial for representative compounds of the present invention also appear in Table I as the percent change in total cholesterol (%TC) from control animals given vehicle and diet only. All compounds in the APCC test reported in Table 1 were administered by garage at 30 mg/kg.

With `CCCCCCCCCCCCn1nnnc1/C(=N\OCC)C(=O)Nc1c(C(C)C)cccc1C(C)C` [Example 41, E-N-(2,6-Diisopropylphenyl)-2-(1-dodecyl-1H-tetrazol-5-yl)-2-ethoxyimino-acetamide], the IC50 in test [1] was found to be 25 nM. Further, the change in vivo at 30 mg/kg in test [2] is -65%.

As a reminder, the IC50 is the concentration that gives 50% inhibition. A higher IC50 goes with lower potency.
